Patent US9533040B2, “Inhibition of human immunodeficiency virus integrase reaching dimer formation utilizing single-chain variable antibodies” (priority 2010, dated 2017)

B1: mAb17: monoclonal antibody specific for the NTD of HIV IN; single chain Fv sequence SEQ ID NO:195 (protein, listed as Mus musculus)
scFv: MKYLLPTAAAGLLLLAAQPAMAMGHHHHHHHHHHSSGHIDDDDKHMDVWLTQTPLSLPVSLGDQASISCRSSQTFVHSDGNTYLEWYLQKPGQSPKLLIYKISNRFSGVPDRFSGSGSGTDFTLKISGVEAEDLGLYYCFQGSHVPFTFGSGTKLEIRRADAAPTVSIFPPSSKLGPGGGGSGGGGSGGGGSELGRSQVQLQQSGAELVRPGASVTLSCKASGYTFIEYEMHWVKQAPVHGLEWIGAVDPETGGTAYNQKFKGKAILTADKSSSTGYMELRSLTSESSAVYYCARQGLGYWGQGTLVTVSA
B2: mAb33: monoclonal antibody specific for the CTD of HIV IN; single chain Fv sequence SEQ ID NO:194 (protein, listed as Mus musculus)
scFv: MKYLLPTAAAGLLLLAAQPAMAMGHHHHHHHHHHSSGHIDDDDKHMDIQMTQSPSSLSASLGGKVTITCKASQDIYKYIAWYQHKPGKGPRLLIHYTSTLQPGIPSRFSGSGSGRDYSFSISNLEPEDIATYYCLQYDNLWTFGGGTKLEIKRADAAPTVSIFPPSSKLGPGGGGSGGGGSGGGGSELGRSEVKLVESGGGLVKPGGSLKLSCAASGFSFSSYAMSWVRQTPEKRLEWVASISSGGNTYYPDSVKGRFTISRDNARNILYLQMSSLRSEDTAMYYCARLDTTVEGDWYFDVWGAGTTLTVSS

Key:
[1] = target: ASV IN (Rous sarcoma virus subgroup C, UniProt P03354, K1536E/R1446K/V1381A); settings: previous studies; cited from earlier work
[2] = target: HIV IN (Human immunodeficiency virus type 1 group M subtype B, UniProt P12497); settings: previous studies; cited from earlier work
[3] = target: T1, HIV IN (F181T) dimer (Human immunodeficiency virus type 1 group M subtype B, UniProt P12497, F1328T); assay: FRET multimerization assay (reaching dimer formation); assay type: binding; settings: each at 1 μM; HIV IN (F181T) at 2 μM; relative to untreated control
T1 construct: made in house
Protocol: The effects of monoclonal antibodies and four small molecule inhibitors (each at 1 μM) are shown.
A multimerization assay based on fluorescence resonance energy transfer (FRET) between donor and acceptor dyes attached to C280 in HIV IN was used. The F181T substitution was introduced in order to monitor reaching dimer formation specifically (see Table 1 and FIGS. 9 and 11). One preparation was labeled with a donor fluorophore (Cy3) and a second with the acceptor (Cy5). Upon mixing (final conc. IN between 0.5 to 2 μM) and equilibration, the FRET efficiency obtained is consistent with the expected apparent distance of 60-65 Å in a reaching dimer. The Z′ factor of 0.7 obtained with this assay is in the “excellent” range for high throughput screening, and additional adjustments (e.g., use of alternative dye pairs, filter changes) may allow us to improve sensitivity even further. To validate the assay, the effects of monoclonal antibodies specific for the CTD (mAb33) or NTD (mAb17) of HIV IN were tested (FIG. 31). […] These preliminary results support the notion that compounds that either stabilize or block reaching dimer formation can result in inhibition of catalysis by IN.

Chain of ASV IN (P03354 1281-1566 V1381A/R1446K/K1536E): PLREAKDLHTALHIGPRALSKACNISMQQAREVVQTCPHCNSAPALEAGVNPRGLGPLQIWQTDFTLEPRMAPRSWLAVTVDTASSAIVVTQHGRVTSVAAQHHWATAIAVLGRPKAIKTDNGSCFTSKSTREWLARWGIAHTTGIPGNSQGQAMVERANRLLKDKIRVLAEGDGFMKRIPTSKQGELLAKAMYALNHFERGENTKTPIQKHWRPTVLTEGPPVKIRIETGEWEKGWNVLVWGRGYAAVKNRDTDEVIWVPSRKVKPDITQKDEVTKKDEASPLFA

Molecule | inhibition of ASV IN [1] | inhibition of HIV IN [2] | effect on FRET-monitored IN self-association (reaching dimer formation) [3]
2BrNSA | robust inhibition | robust inhibition | 
B1 |  |  | inhibit FRET-monitored self-association
B2 |  |  | inhibit FRET-monitored self-association
